Test results taken from patent US20210278393A1, “METHOD FOR MEASURING SINGLE-CELL BIOMASS TO PREDICT CLINICAL OUTCOMES FOR STEM CELL TRANSPLANT PATIENTS” (VIRGINIA COMMONWEALTH UNIVERSITY, priority 2016, published 2021).

What was measured:
[1] = at recommended clinical dose, clinical trials; cited from earlier work
M249R4 cells = test: HSLCI kinase inhibitor screen in Vemurafenib-resistant melanoma; assay type: cell-based, human
Protocol: (§1) Kinase inhibitor screen. 1× Dose Determination: For each inhibitor, a 1× dose was calculated. Briefly, recommended clinical doses were obtained from published package inserts. Doses were matched to peak serum concentrations (Cmax (ng/mL)) for each inhibitor as measured in clinical trials in which the recommended doses were utilized. Using each drugs' molecular weight, peak serum concentration values were converted to uM units and designated as 1×. […] Cobimetinib and Binimetinib were supplied as dry powders and suspended in DMSO to a final stock concentration of 10 mM upon receipt. Cell Preparation and Dosing: M249R4 cells were plated in a 24-well optical glass-bottomed plate (Cat. #P24-0-N, Cellvis) at 1×10^4 cells/ml (total of 1 mL in each of 24 wells) in media (DMEM, 10% Fetal Bovine Serum, 2 mM L-Glutamine) containing 1 uM Vemurafenib. Plated cells were allowed to adhere overnight at 37° C., 5% CO2. All cells were washed with 1× phosphate-buffered saline, pH 7.4, and provided with fresh media. Immediately following washing and feeding, cells were dosed with inhibitors at dose-escalating concentrations and incubated under standard cell culture conditions for 24 hours. After incubation, cells were imaged for 10 hours using the HSLCI system.
(§2) These inhibitors target a spectrum of kinases (Table 2). […] For each targeted kinase inhibitor, a 1× dose was calculated to match the peak tolerated serum concentration (Cmax (ng/mL)), as measured in clinical trials. Our first assay screened all seven inhibitors at several concentrations to identify those that elicited the most apparent reduction in cell growth rates.

[2] = Peak serum concentration (Cmax) in clinical trials at recommended clinical dose; assay type: in vivo, human; details: 1× dose for the screen
Protocol: as §1, §2

[3] = system: all three parental lines (M229P, M238P, M249P); test: HSLCI population kinetic response (biomass growth rate); assay type: cell-based, human; details: 5 μM Vemurafenib
Description: Live Cell Interferometry. The standard and high speed LCI platforms were based on a custom built inverted microscope, coupled to a quantitative phase detecting camera (SID4BIO, Phasics) which consists of a modified Shack-Hartman mask, fitted to a 1600×1200 pixel CCD camera [Imprex B1621]). The phase calculation down samples the raw image to 400×300 pixels, resulting in effective pixel sizes between 1.3 μm and 2.5 μm, depending on the objective. […] In both the standard and high speed systems, position was determined by maximizing contrast during a vertical scan though focus. […]
Image analysis. Raw interferograms were converted to phase images using the manufacturer's software and analyzed with our custom MATLAB script (The MathWorks). […] Using the resulting flattened phase images, single cells segmented from the background using Canny spatial-derivative edge detection algorithms, their locations, and optical volumes were recorded. […] Single cell growth tracks were quality filtered using an upper cutoff of +1-15% uncertainty (s.d. of residuals) in the calculated growth rate, as determined by linear fitting the biomass versus time data. […]

[4] = second assay, up to 10× concentration

Structure (SMILES) | uM (1×) (peak serum concentration converted using molecular weight) [2] | Serum Conc. (ng/mL) (peak serum concentration, Cmax) [1] | dose response (M249R4 cells; first assay) | dose response (M249R4 cells; second assay, dosing range 0.05×-1×) | growth rate response (M249R4 cells; first assay, 0.1×) | growth rate response (M249R4 cells; second assay, doses greater than 0.1×) | cell killing (M249R4 cells; [4]) | dose response (M249R4 cells; [4]) | time by which significant growth rate reduction occurred [3]
Cn1cnc2c(F)c(Nc3ccc(Br)cc3F)c(C(=O)NOCCO)cc21 [Binimetinib] | 0.58 µM | 257.0 ng/mL | slight dose response |  |  |  |  |  | 
O=C(c1ccc(F)c(F)c1Nc1ccc(I)cc1F)N1CC(O)([C@@H]2CCCCN2)C1 [Cobimetinib] | 0.51 µM | 273 ng/mL |  | robust dose responses |  |  |  |  | 

Further lines, with some results ahead:

uM (1×) (peak serum concentration converted using molecular weight) [2] | Structure (SMILES) | Serum Conc. (ng/mL) (peak serum concentration, Cmax) [1] | dose response (M249R4 cells; first assay) | dose response (M249R4 cells; second assay, dosing range 0.05×-1×) | growth rate response (M249R4 cells; first assay, 0.1×) | growth rate response (M249R4 cells; second assay, doses greater than 0.1×) | cell killing (M249R4 cells; [4]) | dose response (M249R4 cells; [4]) | time by which significant growth rate reduction occurred [3]
2.02 µM | CC(C)(C)c1nc(-c2cccc(NS(=O)(=O)c3c(F)cccc3F)c2F)c(-c2ccnc(N)n2)s1 [Dabrafenib] | 1050 ng/mL |  |  | slight reduction in growth rate | reduced growth rates | nor does it kill cells | does not elicit a dose response | 
2.55 µM | Cn1cnc2c(F)c(Nc3ccc(Br)cc3Cl)c(C(=O)NOCCO)cc21 [Selumetinib] | 1165 ng/mL |  |  |  |  |  |  | 
0.04 µM | CC(=O)Nc1cccc(-n2c(=O)n(C3CC3)c(=O)c3c(Nc4ccc(I)cc4F)n(C)c(=O)c(C)c32)c1 [Trametinib] | 22.2 ng/mL |  |  |  |  |  |  | 
9.80 µM | CCCS(=O)(=O)Nc1ccc(F)c(C(=O)c2c[nH]c3ncc(-c4ccc(Cl)cc4)cc23)c1F [Vemurafenib] | 4800 ng/mL |  |  |  |  |  |  | ≤ 20 h
